This is an account of results in patent US12122778B2, “Activating pyruvate kinase R” (Novo Nordisk Health Care AG, priority 2018, dated 2024).

A value given as a limit tells only on which side of the number the result lay.

The experiment has as its target PKR(wt) (Homo sapiens, UniProt P30613). In words: Luminescence Biochemical Assay (Kinase Glo Plus), wild type PKR. Conditions: without FBP; for activation at 1.54 µM: 1.54 μM compound, read-out: AC50 LUM KGP woFBP % Fold@1.54 μM mean; for AC50: read-out: AC50 LUM KGP woFBP AC50 μM gmean; for Emax: read-out: AC50 LUM KGP woFBP MAX % FOLD mean. The protocol: In some embodiments, a PKR Activating Compound can have: (1) an AC50 value of less than 0.1 μM (e.g., compounds with AC50 values of “+++” in Table 13), 0.1-1.0 μM (e.g., compounds with AC50 values of “++” in Table 13), or 1.01-40 μM (e.g., compounds with AC50 values of “+” in Table 13); (2) a MAX % Fold of 75%-250%, 250-500%, or 75%-500%; and/or (3) a % Fold@1.54 μM of 75%-250%, 250-500%, or 75%-500%. In some embodiments, a PKR Activating Compound has (1) an AC50 value of less than 1.0 μM; (2) a MAX % Fold of 75%-500%; and/or (3) a % Fold@1.54 μM of 75%-500%.
The phosphorylation of Adenosine-5′-diphosphate (ADP) by various mutants of PKR was determined by the Kinase Glo Plus Assay (Promega) in the presence or absence of FBP [D-Fructose-1,6-diphosphate; BOC Sciences, CAS: 81028-91-3] as follows. Unless otherwise indicated, all reagents were purchased from Sigma-Aldrich. All reagents were prepared in buffer containing 50 mM Tris-HCl, 100 mM KCl, 5 mM MgCl2, and 0.01% Triton X100, 0.03% BSA, and 1 mM DTT. Enzyme and PEP [Phospho(enol) pyruvic acid] were added at 2× to all wells of an assay-ready plate containing serial dilutions of test compounds or DMSO vehicle. Final enzyme concentrations for PKR(wt), PKR(R510Q), and PKR(G332S) were 0.8 nM, 0.8 nM, and 10 nM respectively. Final PEP concentration was 100 μM. The Enzyme/PEP mixture was incubated with compounds for 30 minutes at RT before the assay was initiated with the addition of 2×ADP [Adenosine-5′-diphosphate] and KinaseGloPlus. Final concentration of ADP was 100 μM. […] For assays containing FBP, that reagent is added at 30 μM upon reaction initiation. Reactions were allowed to progress for 45 minutes at RT until luminescence was recorded by the BMG PHERAstar FS Multilabel Reader. All compounds were tested in triplicate at concentrations ranging from 42.5 μM to 2.2 nM in 0.83% DMSO.
Luminescence values were converted to % Fold increase by normalizing to the average of the DMSO control and multiplying by 100. Max, min, slope and AC50 were determined by the standard four parameter fit algorithm of ActivityBase XE Runner. Compounds were evaluated with three parameters—AC50, MAX % Fold, and % Fold@1.54 μM (FIG. 1). The AC50 value for a compound is the concentration (μM) corresponding to the midway between the maximum and minimum values of the four parameter logistic curve fit (i.e., at which the % fold increase along the four parameter logistic curve fit is halfway between MAX % Fold and MIN % Fold (% Fold Midpoint)), MAX % Fold is the highest fold increase observed at any concentration of compound, and % Fold@1.54 μM is the fold increase at a compound concentration of 1.54 μM. The parameter % Fold@1.54 μM was selected to capture elements of both the AC50 and MAX % Fold and to provide a ranking based on both potency and effect. The compound concentration of 1.54 μM was chosen as one that can optimally differentiate the set of compounds based on the range of activities observed.
As set forth in Table 13 below, AC50 values (columns A, D, G) are defined as follows: ≤0.1 μM (+++); >0.1 μM and ≤1.0 μM (++); >1.0 μM and ≤40 μM (+); >40 μM (0). Max % FOLD values (columns B, E, H) are defined as follows: ≤75% (+); >75% and ≤250% (++); >250% and ≤500% (+++). % Fold@1.54 μM values (columns C, F, J) are defined as follows: ≤75% (+); >75% and ≤250% (++); >250% and ≤50000 (+++).
(In general: Kinase-Glo measures the ATP left after a reaction by luminescence.)

PKR(wt), sequence (P30613 whole entry): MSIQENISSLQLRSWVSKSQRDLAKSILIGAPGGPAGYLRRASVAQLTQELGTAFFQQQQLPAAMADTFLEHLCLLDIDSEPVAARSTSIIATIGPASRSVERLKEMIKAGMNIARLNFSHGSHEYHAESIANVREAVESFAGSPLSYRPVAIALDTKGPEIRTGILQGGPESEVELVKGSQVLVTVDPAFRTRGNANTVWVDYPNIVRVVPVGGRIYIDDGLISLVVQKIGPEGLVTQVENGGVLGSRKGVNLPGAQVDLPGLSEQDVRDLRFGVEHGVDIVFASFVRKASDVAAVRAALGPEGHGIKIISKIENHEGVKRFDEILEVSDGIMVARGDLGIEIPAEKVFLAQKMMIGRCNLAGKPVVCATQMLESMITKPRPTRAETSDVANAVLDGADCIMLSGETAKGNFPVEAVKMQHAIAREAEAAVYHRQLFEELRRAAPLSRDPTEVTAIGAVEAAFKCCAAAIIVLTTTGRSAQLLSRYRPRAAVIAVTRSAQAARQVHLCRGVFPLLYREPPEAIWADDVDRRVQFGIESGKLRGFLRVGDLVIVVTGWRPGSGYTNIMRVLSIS

Turning to `O=C(c1ccccn1)N1CC2=C(C1)CN(S(=O)(=O)c1ccc3occc3c1)C2` [Example 18-83, 2-[5-(1-Benzofuran-5-sulfonyl)-1H,2H,3H,4H,5H,6H-pyrrolo[3,4-c]pyrrole-2-carbonyl]pyridine], the activation at 1.54 µM lay within 75 to 250%, the concentration at half-maximal activity (AC50) was in the range of 1 to 40 µM and the Emax fell in the range of 75 to 250%.

Turning to `CN1CCOc2ccc(S(=O)(=O)N3CC4=C(CN(C(=O)[C@@H]5CCCO5)C4)C3)cc21` [Example 18-77, 4-Methyl-6-({5-[(2S)-oxolane-2-carbonyl]-1H,2H,3H,4H,5H,6H-pyrrolo[3,4-c]pyrrol-2-yl}sulfonyl)-3,4-dihydro-2H-1,4-benzoxazine], the activation at 1.54 µM was in the range of 75 to 250%, the AC50 is 1 to 40 µM and the Emax was 75 to 250%.

Consider `CC[C@H](O)C(=O)N1CC2=C(C1)CN(S(=O)(=O)c1ccc3c(c1)N(C)CCO3)C2` [Example 18-75, (2S)-2-hydroxy-1-{5-[(4-methyl-3,4-dihydro-2H-1,4-benzoxazin-6-yl)sulfonyl]-1H,2H,3H,4H,5H,6H-pyrrolo[3,4-c]pyrrol-2-yl}butan-1-one], for which the activation at 1.54 µM was 75 to 250%, the AC50 fell in the range of 1 to 40 µM and the Emax fell in the range of 75 to 250%.

For the molecule `CN(C)CCC(=O)N1CC2=C(C1)CN(S(=O)(=O)c1ccc3occc3c1)C2` [Example 1-5, 1-(5-(Benzofuran-5-ylsulfonyl)-3,4,5,6-tetrahydropyrrolo[3,4-c]pyrrol-2(1H)-yl)-3-(dimethylamino)propan-1-one], the activation at 1.54 µM was in the range of 75 to 250%, the AC50 was 1 to 40 µM and the Emax was in the range of 75 to 250%.

As to `O=C([C@H](O)c1ccccc1)N1CC2=C(C1)CN(S(=O)(=O)c1cc(F)ccc1Cl)C2` [Example 18-57, (2R)-1-[5-(2-chloro-5-fluorobenzenesulfonyl)-1H,2H,3H,4H,5H,6H-pyrrolo[3,4-c]pyrrol-2-yl]-2-hydroxy-2-phenylethan-1-one], the activation at 1.54 µM lay in the range of 75 to 250%, the AC50 lay within 0.1 to 1 µM and the Emax was in the range of 75 to 250%.

For `O=C(NCc1ccco1)N1CC2=C(C1)CN(S(=O)(=O)c1ccc(OC(F)F)cc1)C2` [Example 21-2, 5-[4-(Difluoromethoxy)benzenesulfonyl]-N-(furan-2-ylmethyl)-1H,2H,3H,4H,5H,6H-pyrrolo[3,4-c]pyrrole-2-carboxamide], the activation at 1.54 µM is 250 to 50000%, the AC50 was not above 0.1 µM and the Emax fell in the range of 250 to 500%.

In the case of `CN1CCOc2ccc(S(=O)(=O)N3CC4=C(CN(C(=O)C5CCCC5)C4)C3)cc21` [Example 18-78, 6-({5-Cyclopentanecarbonyl-1H,2H,3H,4H,5H,6H-pyrrolo[3,4-c]pyrrol-2-yl}sulfonyl)-4-methyl-3,4-dihydro-2H-1,4-benzoxazine], the activation at 1.54 µM was in the range of 75 to 250%, the AC50 is 1 to 40 µM and the Emax fell in the range of 75 to 250%.

`O=C([C@H](O)c1ccccc1)N1CC2=C(C1)CN(S(=O)(=O)c1ccccc1OC(F)(F)F)C2` [Example 18-46, (2R)-2-hydroxy-2-phenyl-1-{5-[2-(trifluoromethoxy)benzenesulfonyl]-1H,2H,3H,4H,5H,6H-pyrrolo[3,4-c]pyrrol-2-yl}ethan-1-one]: the activation at 1.54 µM lay in the range of 75 to 250%, the AC50 was in the range of 1 to 40 µM and the Emax was in the range of 75 to 250%.

`O=C(CCC(F)F)N1CC2=C(C1)CN(S(=O)(=O)c1ccc3occc3c1)C2` [Example 1-2, 1-(5-(Benzofuran-5-ylsulfonyl)-3,4,5,6-tetrahydropyrrolo[3,4-c]pyrrol-2(1H)-yl)-4,4-difluorobutan-1-one]: the activation at 1.54 µM is 75 to 250%, the concentration at half-maximal activity (AC50) lay within 0.1 to 1 µM and the Emax is 250 to 500%.

For `O=C(OCc1cccc(F)c1)N1CC2=C(C1)CN(S(=O)(=O)c1ccc3occc3c1)C2` [Example 22-6, (3-Fluorophenyl)methyl 5-(1-benzofuran-5-sulfonyl)-1H,2H,3H,4H,5H,6H-pyrrolo[3,4-c]pyrrole-2-carboxylate], the activation at 1.54 µM lay within 250 to 50000%, the AC50 was 0.1 to 1 µM and the Emax lay within 250 to 500%.

Regarding `COc1ccc(CNC(=O)N2CC3=C(C2)CN(S(=O)(=O)c2cccnc2)C3)cc1` [Example 20-2, N-[(4-methoxyphenyl)methyl]-5-(pyridine-3-sulfonyl)-1H,2H,3H,4H,5H,6H-pyrrolo[3,4-c]pyrrole-2-carboxamide], the activation at 1.54 µM was in the range of 75 to 250%, the AC50 is 0.1 to 1 µM and the Emax is 250 to 500%.

Consider `CS(=O)(=O)NCC(=O)N1CC2=C(C1)CN(S(=O)(=O)c1ccc3occc3c1)C2` [Example 1-1, N-(2-(5-(benzofuran-5-ylsulfonyl)-3,4,5,6-tetrahydropyrrolo[3,4-c]pyrrol-2(1H)-yl)-2-oxoethyl)methanesulfonamide], for which the activation at 1.54 µM fell in the range of 75 to 250%, the half-maximal activity concentration (AC50) is 0.1 to 1 µM and the Emax was in the range of 75 to 250%.

In the case of `O=C(NCC1CCOC1)N1CC2=C(C1)CN(S(=O)(=O)c1ccc3occc3c1)C2` (stereo not drawn) [Example 3-5, 5-(Benzofuran-5-ylsulfonyl)-N-((tetrahydrofuran-3-yl)methyl)-3,4,5,6-tetrahydropyrrolo[3,4-c]pyrrole-2(1H)-carboxamide], the activation at 1.54 µM lay in the range of 75 to 250%, the AC50 was in the range of 1 to 40 µM and the Emax lay in the range of 75 to 250%.

As for `Cc1ccc(C(C)NC(=O)N2CC3=C(C2)CN(S(=O)(=O)c2ccc(OC(F)F)cc2)C3)s1` (stereo not drawn) [Example 21-7, 5-[4-(Difluoromethoxy)benzenesulfonyl]-N-[1-(5-methylthiophen-2-yl)ethyl]-1H,2H,3H,4H,5H,6H-pyrrolo[3,4-c]pyrrole-2-carboxamide], the activation at 1.54 µM was 75 to 250%, the AC50 lay within 1 to 40 µM and the Emax lay within 250 to 500%.

Regarding `CC(C)(O)C(=O)N1CC2=C(C1)CN(S(=O)(=O)c1ccc3occc3c1)C2` [Example 1-3, 1-(5-(Benzofuran-5-ylsulfonyl)-3,4,5,6-tetrahydropyrrolo[3,4-c]pyrrol-2(1H)-yl)-2-hydroxy-2-methylpropan-1-one], the activation at 1.54 µM fell in the range of 75 to 250%, the AC50 was 0.1 to 1 µM and the Emax lay in the range of 250 to 500%.

For `Cc1ccc(C(C)NC(=O)N2CC3=C(C2)CN(S(=O)(=O)c2ccc(OC(F)F)cc2)C3)o1` (stereo not drawn) [Example 21-3, 5-[4-(Difluoromethoxy)benzenesulfonyl]-N-[1-(5-methylfuran-2-yl)ethyl]-1H,2H,3H,4H,5H,6H-pyrrolo[3,4-c]pyrrole-2-carboxamide], the activation at 1.54 µM fell in the range of 75 to 250%, the AC50 was in the range of 1 to 40 µM and the Emax was 250 to 500%.

Turning to `O=C(c1csc(Nc2cccnc2)n1)N1CC2=C(C1)CN(S(=O)(=O)c1ccc3occc3c1)C2` [Example 18-79, N-{4-[5-(1-benzofuran-5-sulfonyl)-1H,2H,3H,4H,5H,6H-pyrrolo[3,4-c]pyrrole-2-carbonyl]-1,3-thiazol-2-yl}pyridin-3-amine], the activation at 1.54 µM lay within 250 to 50000%, the AC50 was 0.1 to 1 µM and the Emax lay in the range of 250 to 500%.

On to `O=C(c1cnc(C(F)(F)F)nc1)N1CC2=C(C1)CN(S(=O)(=O)c1ccc3occc3c1)C2` [Example 18-86, 5-[5-(1-Benzofuran-5-sulfonyl)-1H,2H,3H,4H,5H,6H-pyrrolo[3,4-c]pyrrole-2-carbonyl]-2-(trifluoromethyl)pyrimidine], for which the activation at 1.54 µM fell in the range of 75 to 250%, the concentration at half-maximal activity (AC50) was 1 to 40 µM and the Emax fell in the range of 75 to 250%.

The term AC50 denotes the midpoint of the concentration-response curve, whichever way the signal moves.
